From ChEMBL document CHEMBL1201862, “PubChem BioAssay data set” (2004)
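Step 1: Grow cells in 96-well plates. Step 2: Expose to compound for 48 hours at 5 concentrations. Step 3: Interpolate endpoints linearly; if unreached, use highest concentration. Abbreviation: GI50, concentration required for 50% inhibition of growth.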 Active and inactive are the calls of the source. Rule as the data show it: active = GI50 up to about 1.1 µM and inactive = higher.

Assays:
Experiment in all cases: DTP human tumour cell line panel, 48 h
[1] = system: CAKI-1
[2] = system: COLO 205
[3] = system: HCC 2998
[4] = system: HCT-15
[5] = system: HOP-62
[6] = system: HOP-92
[7] = system: HT-29
[8] = system: MDA-N
[9] = system: NCI-H226
[10] = system: NCI-H23
[11] = system: OVCAR-3
[12] = system: OVCAR-8
[13] = system: RPMI-8226
[14] = system: SK-MEL-28
[15] = system: SK-OV-3
[16] = system: SN12C
[17] = system: SNB-19
[18] = system: UACC-257
[19] = system: CCRF-CEM

Row | Compound | GI50 [1] | GI50 [2] | GI50 [3] | GI50 [4] | GI50 [5] | GI50 [6] | GI50 [7] | GI50 [8] | GI50 [9] | GI50 [10] | GI50 [11] | GI50 [12] | GI50 [13] | GI50 [14] | GI50 [15] | GI50 [16] | GI50 [17] | GI50 [18] | GI50 [19]
1 | CCOC(=O)[C@@H]1C[C@H]1c1ccc(O)c(O)c1 | 29.7 µM (inactive) | 57.8 µM (inactive) | 31.6 µM (inactive) | 33.6 µM | 84.9 µM (inactive) | > 100 µM (inactive) | 55.5 µM (inactive) | 12.7 µM (inactive) | 70.6 µM (inactive) | 4.74 µM (inactive) | 29 µM (inactive) | 37.9 µM (inactive) | 30.9 µM (inactive) | 25.4 µM (inactive) | 43.1 µM (inactive) | 75.5 µM (inactive) | > 100 µM (inactive) | 19.9 µM (inactive) | 
2 | COC(=O)CNC(=O)CCSc1nnc(COc2ccc(Cl)cc2)n1-c1ccccc1 | 12 µM (inactive) | 32.1 µM (inactive) | 42.9 µM (inactive) | 74.6 µM | > 100 µM (inactive) | 33.6 µM (inactive) | 27.5 µM (inactive) | 16.1 µM (inactive) | 16 µM (inactive) | 45.6 µM (inactive) | 30.9 µM (inactive) | 34.9 µM (inactive) |  | 23.7 µM (inactive) | > 100 µM (inactive) | 20.3 µM (inactive) | > 100 µM (inactive) | 19.1 µM (inactive) | 55.5 µM (inactive)
3 | O=C1CSC2(CCN(CCCN3c4ccccc4Sc4ccc(Cl)cc43)CC2)N1 | 12.5 µM (inactive) | 10 µM (inactive) | 3.99 µM (inactive) | 6.78 µM | 12.9 µM (inactive) | 5.55 µM (inactive) | 3.53 µM (inactive) | 11.5 µM (inactive) | 17.6 µM (inactive) | 9.46 µM (inactive) | 10.4 µM (inactive) | 11.3 µM (inactive) | 6.05 µM (inactive) | 15 µM (inactive) | 9.77 µM (inactive) | 10.8 µM (inactive) | 12.1 µM (inactive) | 9.35 µM (inactive) | 
4 | Cc1ccc(C2=Nc3c(c(C)nn3-c3ccccc3)N=C(C(=O)O)C2)cc1 | > 10 µM (inactive) | > 10 µM (inactive) | > 10 µM (inactive) | > 10 µM | > 10 µM (inactive) | > 10 µM (inactive) | > 10 µM (inactive) | > 10 µM (inactive) | > 10 µM (inactive) | > 10 µM (inactive) | > 10 µM (inactive) | > 10 µM (inactive) |  | > 10 µM (inactive) | > 10 µM (inactive) | > 10 µM (inactive) | > 10 µM (inactive) | > 10 µM (inactive) | > 10 µM (inactive)
5 | CC(C)(/C=N/O)/[N+]([O-])=C/c1ccccc1 | > 100 µM (inactive) | > 100 µM (inactive) | > 100 µM (inactive) | > 100 µM | > 100 µM (inactive) | > 100 µM (inactive) | > 100 µM (inactive) | > 100 µM (inactive) | > 100 µM (inactive) | > 100 µM (inactive) | > 100 µM (inactive) | > 100 µM (inactive) | > 100 µM (inactive) | > 100 µM (inactive) | > 100 µM (inactive) | > 100 µM (inactive) | > 100 µM (inactive) | > 100 µM (inactive) | 
6 | Cc1cccc(-c2cccc(COCc3cccc(-c4cccc(CO)n4)n3)n2)n1 | 34.4 µM (inactive) | 4.11 µM (inactive) | > 50 µM (inactive) | 35.2 µM | > 50 µM (inactive) | 47.2 µM (inactive) | 40.8 µM (inactive) | > 50 µM (inactive) | > 50 µM (inactive) |  | 3.7 µM (inactive) | 16.2 µM (inactive) | 33.3 µM (inactive) | > 50 µM (inactive) | > 50 µM (inactive) | > 50 µM (inactive) | > 50 µM (inactive) | 12.8 µM (inactive) | 
7 | C(/C=N/N=C1NCCCN1)=N\N=C1NCCCN1 | > 100 µM (inactive) | > 100 µM (inactive) | > 100 µM (inactive) |  | > 100 µM (inactive) | 56.5 µM (inactive) | > 100 µM (inactive) | > 100 µM (inactive) | > 100 µM (inactive) | > 100 µM (inactive) | > 100 µM (inactive) | > 100 µM (inactive) |  | > 100 µM (inactive) | > 100 µM (inactive) | > 100 µM (inactive) | > 100 µM (inactive) | > 100 µM (inactive) | > 100 µM (inactive)
8 | COC(=O)c1cc(C)ccc1/C=C1\Cc2cccc(C)c2C1=O | 49.2 µM (inactive) |  | 47.5 µM (inactive) | 18.8 µM | 31.2 µM (inactive) | 20.4 µM (inactive) | 12.8 µM (inactive) | 11.1 µM (inactive) | 58.3 µM (inactive) | > 100 µM (inactive) | 19.5 µM (inactive) | 14.1 µM (inactive) | 28.8 µM (inactive) | 62.1 µM (inactive) |  | 4.9 µM (inactive) | > 100 µM (inactive) | 22 µM (inactive) | 12.3 µM (inactive)
9 | O=C(COc1ccccc1)N(C(=O)N1CCN(c2ccccc2)CC1)S(=O)(=O)c1ccccc1 | > 100 µM (inactive) | > 100 µM (inactive) | > 100 µM (inactive) | 47.5 µM | 72.8 µM (inactive) | > 100 µM (inactive) | 43.5 µM (inactive) | 62.4 µM (inactive) | 57.4 µM (inactive) | > 100 µM (inactive) | 62.4 µM (inactive) | 35.2 µM (inactive) |  | > 100 µM (inactive) | > 100 µM (inactive) | 53 µM (inactive) | 83.2 µM (inactive) | > 100 µM (inactive) | 22.1 µM (inactive)
10 | O=[N+]([O-])c1ccc2c(c1)N=C1OC(c3c[nH]c4ccc(COc5ccccc5)cc34)C(O)=C1N2 (configuration not stated) | > 100 µM (inactive) | 23.2 µM (inactive) | 21.2 µM (inactive) | > 100 µM | 60.3 µM (inactive) | > 100 µM (inactive) | > 100 µM (inactive) | > 100 µM (inactive) | > 100 µM (inactive) | > 100 µM (inactive) | > 100 µM (inactive) | > 100 µM (inactive) | > 100 µM (inactive) | > 100 µM (inactive) | 98.9 µM (inactive) | > 100 µM (inactive) | > 100 µM (inactive) | 33.7 µM (inactive) | 
11 | CC1(C)OC2CN(C(=O)OCc3ccccc3)C(CO)C2O1 (configuration not stated) | > 100 µM (inactive) | > 100 µM (inactive) | > 100 µM (inactive) | > 100 µM | > 100 µM (inactive) | > 100 µM (inactive) | > 100 µM (inactive) | > 100 µM (inactive) | > 100 µM (inactive) | > 100 µM (inactive) | > 100 µM (inactive) | > 100 µM (inactive) | > 100 µM (inactive) | > 100 µM (inactive) | > 100 µM (inactive) | > 100 µM (inactive) | > 100 µM (inactive) | > 100 µM (inactive) | 
12 | C/C(=N\N=C(\N)SB(F)F)c1ccc2ccccc2c1 | > 100 µM (inactive) | > 100 µM (inactive) | > 100 µM (inactive) | 95.5 µM |  | > 100 µM (inactive) | > 100 µM (inactive) | > 100 µM (inactive) | > 100 µM (inactive) | > 100 µM (inactive) |  | > 100 µM (inactive) |  | > 100 µM (inactive) | > 100 µM (inactive) | > 100 µM (inactive) | > 100 µM (inactive) | > 100 µM (inactive) | 4.37 µM (inactive)
13 | O=C(c1ccc(Cl)cc1)N(C(=S)OC12CC3CC(CC(C3)C1)C2)c1ccccc1 | 35.2 µM (inactive) | 16.8 µM (inactive) | 31.6 µM (inactive) | 34.6 µM | 45.5 µM (inactive) | 34 µM (inactive) | 32.3 µM (inactive) | 49.5 µM (inactive) | 30.9 µM (inactive) | 35.6 µM (inactive) | 44.6 µM (inactive) | 39.2 µM (inactive) |  | > 100 µM (inactive) | 53.1 µM (inactive) | 45.2 µM (inactive) | 29.6 µM (inactive) | 46.6 µM (inactive) | 16.3 µM (inactive)
14 | Nc1nccc(NCC2(CO)CCC2)n1 | 63.4 µM (inactive) | > 100 µM (inactive) | > 100 µM (inactive) | > 100 µM | > 100 µM (inactive) | > 100 µM (inactive) | > 100 µM (inactive) | > 100 µM (inactive) | > 100 µM (inactive) | > 100 µM (inactive) | > 100 µM (inactive) | > 100 µM (inactive) | > 100 µM (inactive) | > 100 µM (inactive) |  | > 100 µM (inactive) |  | > 100 µM (inactive) | > 100 µM (inactive)
15 | O=C(/C=C/c1ccc(/C=C/C(=O)c2ccc(O)cc2)cc1)c1ccc(O)cc1 | > 100 µM (inactive) | > 100 µM (inactive) | > 100 µM (inactive) | > 100 µM | > 100 µM (inactive) | > 100 µM (inactive) | 58.1 µM (inactive) | > 100 µM (inactive) | > 100 µM (inactive) | > 100 µM (inactive) | > 100 µM (inactive) | > 100 µM (inactive) | > 100 µM (inactive) | > 100 µM (inactive) |  | > 100 µM (inactive) | > 100 µM (inactive) | > 100 µM (inactive) | > 100 µM (inactive)
16 | CC[C@H](CC[C@@H](C)[C@H]1CC[C@H]2[C@@H]3CC=C4C[C@@H](O)CC[C@]4(C)[C@H]3CC[C@]12C)C(C)C [BETA-SITOSTEROL] | > 100 µM (inactive) | > 100 µM (inactive) | > 100 µM (inactive) | > 100 µM | > 100 µM (inactive) | > 100 µM (inactive) | > 100 µM (inactive) | > 100 µM (inactive) | > 100 µM (inactive) | > 100 µM (inactive) | > 100 µM (inactive) | > 100 µM (inactive) | > 100 µM (inactive) | > 100 µM (inactive) |  | > 100 µM (inactive) | > 100 µM (inactive) | > 100 µM (inactive) | > 100 µM (inactive)
